Results reported in ChEMBL document CHEMBL5465560, “Selectivity Literature for EUbOPEN Chemogenomic Library” (2024).

Tests used:
[1] = target: T1, Serine/threonine-protein kinase TAO1 (Homo sapiens) (UniProt Q7L7X3); assay: Selectivity interaction (Kinase panel (KiNativ target engagement assay in Jurkat cells)) EUB0001635a TAOK1; type: cell-based; conditions: Selectivity number of off-targets 0.0, Selectivity number of targets 233.0, Source Knowledge https://www.sciencedirect.com/science/article/pii/S2451945619300674?via%3Dihub, at 1 µM
T1 sequence (whole entry): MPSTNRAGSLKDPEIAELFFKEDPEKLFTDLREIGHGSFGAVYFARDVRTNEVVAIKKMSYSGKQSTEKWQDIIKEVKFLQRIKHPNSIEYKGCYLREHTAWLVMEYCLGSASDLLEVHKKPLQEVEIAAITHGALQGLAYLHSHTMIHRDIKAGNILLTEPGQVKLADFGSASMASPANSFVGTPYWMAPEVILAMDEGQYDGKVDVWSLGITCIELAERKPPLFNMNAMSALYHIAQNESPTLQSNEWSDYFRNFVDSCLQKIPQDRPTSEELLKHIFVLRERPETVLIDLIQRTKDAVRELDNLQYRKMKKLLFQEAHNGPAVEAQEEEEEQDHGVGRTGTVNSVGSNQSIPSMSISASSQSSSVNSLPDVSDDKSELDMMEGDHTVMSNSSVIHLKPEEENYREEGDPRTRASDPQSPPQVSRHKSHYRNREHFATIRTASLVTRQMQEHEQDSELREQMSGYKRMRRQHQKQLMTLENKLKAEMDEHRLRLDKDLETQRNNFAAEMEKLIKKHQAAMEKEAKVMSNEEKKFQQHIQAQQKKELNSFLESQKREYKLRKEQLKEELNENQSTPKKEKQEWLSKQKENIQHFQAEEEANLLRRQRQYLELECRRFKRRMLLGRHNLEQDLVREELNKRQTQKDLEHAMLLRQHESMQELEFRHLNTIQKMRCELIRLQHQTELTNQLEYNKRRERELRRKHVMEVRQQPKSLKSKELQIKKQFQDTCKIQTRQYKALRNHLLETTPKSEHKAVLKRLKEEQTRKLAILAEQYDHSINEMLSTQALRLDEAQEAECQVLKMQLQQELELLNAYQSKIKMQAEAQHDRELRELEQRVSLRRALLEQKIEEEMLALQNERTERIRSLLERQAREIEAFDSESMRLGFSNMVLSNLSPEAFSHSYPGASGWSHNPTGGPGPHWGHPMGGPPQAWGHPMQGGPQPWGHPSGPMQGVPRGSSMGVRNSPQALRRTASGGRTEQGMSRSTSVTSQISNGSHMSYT

[2] = target: Calcium/calmodulin-dependent protein kinase type 1G (Homo sapiens) (UniProt Q96NX5); assay: Selectivity interaction (KinomeScan (DiscoverX)) EUB0000666a CAMK1G; conditions: at 10 µM
Chain of Calcium/calmodulin-dependent protein kinase type 1G (Homo sapiens) (Q96NX5 whole entry): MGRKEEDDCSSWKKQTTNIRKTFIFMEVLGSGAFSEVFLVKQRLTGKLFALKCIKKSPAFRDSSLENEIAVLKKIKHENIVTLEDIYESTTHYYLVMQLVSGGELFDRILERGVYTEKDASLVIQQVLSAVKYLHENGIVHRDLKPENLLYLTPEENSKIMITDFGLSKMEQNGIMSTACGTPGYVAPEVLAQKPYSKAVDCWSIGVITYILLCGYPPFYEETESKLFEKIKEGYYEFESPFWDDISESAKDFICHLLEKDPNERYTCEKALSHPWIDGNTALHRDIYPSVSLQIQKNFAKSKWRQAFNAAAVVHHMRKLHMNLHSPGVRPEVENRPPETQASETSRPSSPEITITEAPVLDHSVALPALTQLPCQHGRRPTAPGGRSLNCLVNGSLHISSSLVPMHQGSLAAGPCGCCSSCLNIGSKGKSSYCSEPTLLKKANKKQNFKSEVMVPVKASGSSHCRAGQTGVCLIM

[3] = target: Glycogen synthase kinase-3 alpha (Homo sapiens, UniProt P49840); assay: Selectivity interaction (Kinase panel (Invitrogen)) EUB0000639a GSK3A; conditions: at 200 nM
Chain of Glycogen synthase kinase-3 alpha (P49840 2-483 limits assumed): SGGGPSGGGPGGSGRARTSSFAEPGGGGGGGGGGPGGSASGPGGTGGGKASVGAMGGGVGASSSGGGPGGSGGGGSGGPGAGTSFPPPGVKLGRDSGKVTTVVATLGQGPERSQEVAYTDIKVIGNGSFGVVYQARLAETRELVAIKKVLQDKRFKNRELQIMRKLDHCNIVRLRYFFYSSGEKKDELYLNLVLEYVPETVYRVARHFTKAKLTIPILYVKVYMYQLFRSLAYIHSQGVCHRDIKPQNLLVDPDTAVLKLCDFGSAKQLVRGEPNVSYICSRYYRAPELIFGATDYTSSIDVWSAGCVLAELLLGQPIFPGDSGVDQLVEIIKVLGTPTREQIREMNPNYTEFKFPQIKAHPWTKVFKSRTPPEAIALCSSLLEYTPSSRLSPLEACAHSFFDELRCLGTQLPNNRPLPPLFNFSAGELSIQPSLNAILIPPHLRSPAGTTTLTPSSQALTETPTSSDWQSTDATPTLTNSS

[4] = target: Serine/threonine-protein kinase SIK2 (Homo sapiens) (UniProt Q9H0K1); conditions: at 10 µM
Chain of Serine/threonine-protein kinase SIK2 (Homo sapiens) (Q9H0K1 whole entry, looked up): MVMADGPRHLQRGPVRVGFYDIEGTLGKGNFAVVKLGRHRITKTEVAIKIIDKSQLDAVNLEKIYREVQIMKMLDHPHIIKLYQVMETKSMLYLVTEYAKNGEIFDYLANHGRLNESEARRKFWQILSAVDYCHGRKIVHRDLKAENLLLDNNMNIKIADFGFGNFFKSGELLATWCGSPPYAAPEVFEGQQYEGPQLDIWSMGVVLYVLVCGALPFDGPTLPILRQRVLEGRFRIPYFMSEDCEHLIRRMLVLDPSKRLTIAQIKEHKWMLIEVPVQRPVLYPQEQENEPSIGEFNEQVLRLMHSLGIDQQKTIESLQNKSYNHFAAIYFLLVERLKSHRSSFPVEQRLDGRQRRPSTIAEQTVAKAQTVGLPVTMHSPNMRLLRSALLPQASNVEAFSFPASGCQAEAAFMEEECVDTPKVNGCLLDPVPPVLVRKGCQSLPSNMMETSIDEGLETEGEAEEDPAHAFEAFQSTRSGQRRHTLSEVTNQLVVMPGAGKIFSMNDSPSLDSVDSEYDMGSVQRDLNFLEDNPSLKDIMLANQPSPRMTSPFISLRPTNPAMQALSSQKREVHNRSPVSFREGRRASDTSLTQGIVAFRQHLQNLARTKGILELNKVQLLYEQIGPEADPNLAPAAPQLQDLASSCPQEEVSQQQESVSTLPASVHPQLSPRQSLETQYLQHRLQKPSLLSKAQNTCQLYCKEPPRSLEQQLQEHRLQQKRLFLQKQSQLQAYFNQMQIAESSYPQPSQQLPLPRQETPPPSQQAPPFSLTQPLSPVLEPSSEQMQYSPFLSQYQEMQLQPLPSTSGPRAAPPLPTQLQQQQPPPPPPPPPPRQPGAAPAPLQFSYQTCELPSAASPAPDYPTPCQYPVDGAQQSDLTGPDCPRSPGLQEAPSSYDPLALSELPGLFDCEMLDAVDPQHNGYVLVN

[5] = target: T2, Inhibitor of nuclear factor kappa-B kinase subunit beta (Homo sapiens) (UniProt O14920); assay: Selectivity interaction (Kinase panel (literature)) EUB0001199aCl IKBKB; conditions: at 1 µM
T2 sequence (whole entry): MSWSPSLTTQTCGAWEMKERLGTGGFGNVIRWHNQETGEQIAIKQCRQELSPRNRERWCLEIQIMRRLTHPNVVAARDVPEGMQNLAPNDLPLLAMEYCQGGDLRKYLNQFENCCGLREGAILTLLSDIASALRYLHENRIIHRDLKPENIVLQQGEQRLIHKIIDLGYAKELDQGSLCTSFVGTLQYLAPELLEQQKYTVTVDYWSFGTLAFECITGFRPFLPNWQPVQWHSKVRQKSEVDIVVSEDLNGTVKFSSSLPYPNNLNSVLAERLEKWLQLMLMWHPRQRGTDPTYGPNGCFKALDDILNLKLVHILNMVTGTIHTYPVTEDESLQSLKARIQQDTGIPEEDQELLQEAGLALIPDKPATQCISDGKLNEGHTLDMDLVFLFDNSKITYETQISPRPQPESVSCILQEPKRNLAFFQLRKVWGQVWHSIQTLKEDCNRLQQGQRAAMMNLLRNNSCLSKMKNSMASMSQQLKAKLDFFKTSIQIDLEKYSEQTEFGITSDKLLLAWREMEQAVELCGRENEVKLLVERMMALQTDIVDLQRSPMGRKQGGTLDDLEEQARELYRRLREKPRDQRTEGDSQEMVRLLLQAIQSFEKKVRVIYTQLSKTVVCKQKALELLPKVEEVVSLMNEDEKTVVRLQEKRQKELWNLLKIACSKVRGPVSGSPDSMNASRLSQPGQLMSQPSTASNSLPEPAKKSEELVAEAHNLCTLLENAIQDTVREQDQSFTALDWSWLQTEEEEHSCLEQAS

[6] = target: T3, Membrane-associated tyrosine- and threonine-specific cdc2-inhibitory kinase (Homo sapiens) (UniProt Q99640); assay: Selectivity interaction (Ambit KINOMEscan and KiNATiv profiling in Jurkat cells) EUB0000090b PKMYT1; type: cell-based; conditions: at 1 µM
T3 sequence (whole entry): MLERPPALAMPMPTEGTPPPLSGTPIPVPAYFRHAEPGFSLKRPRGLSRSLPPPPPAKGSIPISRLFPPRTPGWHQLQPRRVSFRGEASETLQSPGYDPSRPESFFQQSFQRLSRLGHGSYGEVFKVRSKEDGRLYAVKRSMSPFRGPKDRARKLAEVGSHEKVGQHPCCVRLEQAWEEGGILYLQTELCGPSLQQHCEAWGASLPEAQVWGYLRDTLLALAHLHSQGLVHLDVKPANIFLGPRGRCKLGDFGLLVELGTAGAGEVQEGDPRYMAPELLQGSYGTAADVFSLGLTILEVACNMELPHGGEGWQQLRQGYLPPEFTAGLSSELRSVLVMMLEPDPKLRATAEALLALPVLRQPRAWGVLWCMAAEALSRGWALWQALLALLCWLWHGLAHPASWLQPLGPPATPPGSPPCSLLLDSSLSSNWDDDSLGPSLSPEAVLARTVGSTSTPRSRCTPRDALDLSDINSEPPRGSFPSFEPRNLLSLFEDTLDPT

[7] = target: Ribosomal protein S6 kinase alpha-6 (Homo sapiens, UniProt Q9UK32); assay: Selectivity interaction (Kinase screening (Nanosyn)) EUB0000604a RPS6KA6
Chain of Ribosomal protein S6 kinase alpha-6 (Q9UK32 whole entry): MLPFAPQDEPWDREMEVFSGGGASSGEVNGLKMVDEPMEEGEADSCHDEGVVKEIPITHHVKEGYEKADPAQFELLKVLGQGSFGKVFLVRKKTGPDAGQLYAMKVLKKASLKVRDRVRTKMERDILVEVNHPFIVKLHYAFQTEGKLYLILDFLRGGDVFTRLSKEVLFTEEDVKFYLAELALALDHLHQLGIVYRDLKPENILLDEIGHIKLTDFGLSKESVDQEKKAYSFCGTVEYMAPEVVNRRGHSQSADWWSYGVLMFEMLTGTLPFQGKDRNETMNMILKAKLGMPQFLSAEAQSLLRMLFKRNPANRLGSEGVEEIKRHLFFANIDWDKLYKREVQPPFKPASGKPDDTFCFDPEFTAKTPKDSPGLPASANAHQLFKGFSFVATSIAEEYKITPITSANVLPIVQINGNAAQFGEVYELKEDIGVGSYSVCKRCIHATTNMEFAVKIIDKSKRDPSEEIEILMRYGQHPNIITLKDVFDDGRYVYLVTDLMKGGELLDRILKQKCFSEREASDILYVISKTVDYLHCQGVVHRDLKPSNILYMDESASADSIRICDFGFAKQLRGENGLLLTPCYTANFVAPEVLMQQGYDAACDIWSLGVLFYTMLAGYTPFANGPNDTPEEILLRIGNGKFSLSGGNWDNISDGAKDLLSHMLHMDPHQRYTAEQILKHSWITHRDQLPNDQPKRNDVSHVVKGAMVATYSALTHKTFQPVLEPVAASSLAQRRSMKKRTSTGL

[8] = target: DNA (cytosine-5)-methyltransferase 3A (Homo sapiens) (UniProt Q9Y6K1); conditions: at 10 µM
Chain of DNA (cytosine-5)-methyltransferase 3A (Homo sapiens) (Q9Y6K1 whole entry, looked up): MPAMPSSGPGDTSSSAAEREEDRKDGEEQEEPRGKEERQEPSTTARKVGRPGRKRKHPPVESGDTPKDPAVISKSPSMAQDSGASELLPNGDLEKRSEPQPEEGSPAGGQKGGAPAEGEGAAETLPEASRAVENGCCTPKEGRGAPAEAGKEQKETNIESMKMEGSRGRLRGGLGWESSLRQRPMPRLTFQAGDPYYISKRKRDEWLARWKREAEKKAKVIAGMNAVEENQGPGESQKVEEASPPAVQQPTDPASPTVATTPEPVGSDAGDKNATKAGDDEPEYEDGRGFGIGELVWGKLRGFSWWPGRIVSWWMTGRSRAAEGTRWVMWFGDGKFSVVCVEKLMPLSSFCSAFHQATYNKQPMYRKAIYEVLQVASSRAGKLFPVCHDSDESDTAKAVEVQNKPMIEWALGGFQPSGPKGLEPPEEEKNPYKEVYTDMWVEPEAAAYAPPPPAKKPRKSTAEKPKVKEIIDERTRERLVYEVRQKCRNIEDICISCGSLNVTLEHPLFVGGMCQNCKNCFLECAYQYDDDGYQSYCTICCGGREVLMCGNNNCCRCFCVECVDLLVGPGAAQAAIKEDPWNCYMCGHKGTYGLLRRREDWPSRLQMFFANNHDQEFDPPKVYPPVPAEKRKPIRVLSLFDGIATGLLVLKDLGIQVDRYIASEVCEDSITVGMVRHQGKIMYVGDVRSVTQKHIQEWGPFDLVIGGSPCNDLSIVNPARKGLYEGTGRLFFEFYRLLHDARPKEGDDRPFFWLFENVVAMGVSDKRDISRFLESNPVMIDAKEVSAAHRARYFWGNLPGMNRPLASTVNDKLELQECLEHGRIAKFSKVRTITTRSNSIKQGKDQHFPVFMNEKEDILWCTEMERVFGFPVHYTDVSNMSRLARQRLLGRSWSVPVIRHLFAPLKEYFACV

## C=CC(=O)Nc1ccc(C(=O)Nc2[nH]nc3c2CN(C(=O)N[C@H](CN(C)C)c2ccccc2)C3(C)C)cc1
[1]
  % of engagement: -0.7%

## O=C(NOC[C@H](O)CO)c1ccc(F)c(F)c1Nc1ccc(I)cc1F
[2]
  % of control: 100%

## CC[C@@H]1[C@H](F)C(=O)N[C@@H]1COc1nccc2cc(C(N)=O)c(OC)cc12 [ZIMLOVISERTIB]
[3]
  % of inhibition: 7.43%

## COCC(=O)NC/C=C/c1ccc2ncnc(Nc3ccc(Oc4ccc(C)nc4)c(C)c3)c2c1 [CP-724714]
[4]
  % of control: 84%

## CN1Cc2nccc(-c3cn(C)nc3-c3ccc(F)cc3)c2C1=O
[5]
  % of inhibition: 4%

## CN(C)C/C=C/C(=O)Nc1ccc(C(=O)N2CCCC(Nc3ncc(Cl)c(-c4c[nH]c5ccccc45)n3)C2)cc1 (stereo not drawn)
[6]
  % of control: 93%

## Cc1cnc(Nc2ccc(F)cc2Cl)nc1-c1c[nH]c(C(=O)N[C@H](CO)c2cccc(Cl)c2)c1
[7]
  % of inhibition: 11%

## CNCCN1CCC(c2cc(CN(C)C(=O)c3cccc(Oc4ccccc4)c3)ccn2)CC1
[8]
  % activity: > 90%
